Source: publication PMC5321434, “Dihydrobenz[e][1,4]oxazepin-2(3H)-ones, a new anthelmintic chemotype immobilising whipworm and reducing infectivity in vivo” (PLoS Neglected Tropical Diseases, 2017)

System: adult T. muris
Experiment: Ex vivo adult T. muris automated motility assay (primary/secondary screen at 100 μM and dose-response)
Set-up: species or system Trichuris muris
Details: for PRIMARY_SCREEN_MINUS_LOG_FOLD_CHANGE_MOVEMENT: primary screen; for PRIMARY_SCREEN_MINUS_LOG_FOLD_CHANGE_MOVEMENT / SECONDARY_SCREEN_MINUS_LOG_FOLD_CHANGE_MOVEMENT: adult T. muris motility; for SECONDARY_SCREEN_MINUS_LOG_FOLD_CHANGE_MOVEMENT: secondary screen
Description: Severe combined immune deficiency (SCID) mice were bred in the Biological Services Facility at the University of Manchester. Both male and female SCID mice were infected with a high dose of 200 infective embryonated T. muris eggs via oral gavage. At day 35 post-infection, groups of 5 mice were killed and their […] colons removed. Guts were opened longitudinally, washed with pre-warmed Roswell Park Memorial Institute (RPMI) 1640 media supplemented with penicillin (500U/ml) and streptomycin (500μg/ml) and adult T. muris worms gently removed using fine forceps. Worms removed from SCID mice were maintained in RPMI-1640 media supplemented with penicillin (500U/ml) and streptomycin (500μg/ml) at approximately 37°C and studied on the same day. Using fine forceps, individual live worms were placed into 96 well plates containing 75μl of RPMI-1640 medium supplemented with penicillin (500U/ml) and streptomycin (500μg/ml) plus 1% final concentration of DMSO or compound dissolved in DMSO. In the primary screen the test compound concentration was 100μM. Plates were then incubated at 37°C, 5% CO2, and motility was analysed after 24 hours. Worm movement was quantified using an automated motility assay. This system gives an estimate of worm movement in each well by thresholding and quantifying pixel intensity variance over time. An earlier version of this system has been previously described. One adult T. muris worm was used per well, with one well per compound in each replicate of the primary screen. The primary screen was repeated each week for a period of four weeks giving four independent biological replicates from separate parasite batches for each compound. Dose-response curves were calculated with the four factor log-logistic model using the R package drc. The primary screen was carried out at 100μM final concentration. Assay plates were assigned unique IDs and statistical analysis was performed without knowledge of compound identities using R scripts. Once hit wells were identified, well/plate positions were mapped to compound identities using DataWarrior [28]. […] Compounds identified as having encouraging activity from the DMSO solution samples were then resynthesized for confirmatory testing.

[1] = combined primary and secondary screen minus log fold change in movement, adult T. muris, 100 μM
[2] = adult T. muris motility screen at 100 μM, combines primary and secondary screen minus log fold change in movement (mean where both are given)

Compound | COMBINED_SCREEN_ACTIVITY [1] | PRIMARY_SCREEN_MINUS_LOG_FOLD_CHANGE_MOVEMENT (100 μM) | COMBINED_SCREEN_ACTIVITY [2] | SECONDARY_SCREEN_MINUS_LOG_FOLD_CHANGE_MOVEMENT (100 μM)
CC(C)N1C(=O)COCc2ccc(-c3cnn(C)c3)cc21 [Compound 20] | 0.06851 | 0.06851 | – | –
COc1cc(F)ccc1-c1cccc2c1COCC(=O)N2C [Compound 32] | -1.894 | -1.894 | – | –
Cc1ccccc1-c1ccc2c(c1)COCC(=O)N2CCN1CCOCC1 [Compound 111] | -0.2494 | -0.2494 | – | –
COc1ccccc1-c1ccc2c(c1)COCC(=O)N2CCc1ccccc1 [Compound 119] | -0.8266 | -0.8266 | – | –
O=C1COCc2ccc(-c3cccnc3)cc2N1Cc1ccccc1 [Compound 50] | 0.07509 | 0.07509 | – | –
O=C1COCc2cc(Br)ccc2N1CCN1CCOCC1 [Compound 91] | -2.221 | -2.221 | – | –
CCN(CC)C(=O)c1cccc(-c2ccc3c(c2)N(Cc2ccccc2C)C(=O)COC3)c1 [Compound 191] | – | 10.7743 | 10.9041 | 11.0339
COc1cccc(CN2C(=O)COCc3ccc(-c4ccc5c(c4)OCO5)cc32)c1 [Compound 169] | 0.1266 | 0.1266 | – | –
O=C1COCc2cc(Br)ccc2N1Cc1ccccc1 [Compound 54] | 0.1915 | 0.1915 | – | –
O=C1COCc2ccc(-c3cccnc3)cc2N1Cc1ccccc1Cl [Compound 107] | 2.19 | 2.19 | – | –
CC(C)Oc1cccc(-c2ccc3c(c2)N(CCN2CCOCC2)C(=O)COC3)c1 [Compound 180] | -1.713 | -1.713 | – | –
O=C1COCc2cc(-c3cccnc3)ccc2N1Cc1ccccc1 [Compound 51] | -0.6528 | -0.6528 | – | –
COC(=O)c1cccc(-c2ccc3c(c2)N(Cc2cccc(OC)c2)C(=O)COC3)c1 [Compound 183] | – | -1.271 | -1.271 | –
O=C1COCc2ccccc2N1Cc1cc(F)cc(F)c1 [Compound 23] | -1.442 | -1.442 | – | –
O=C1COCc2cc(-c3cccnc3)ccc2N1Cc1cc(F)cc(F)c1 [Compound 109] | 7.462 | 7.462 | – | –
COCCN1C(=O)COCc2ccc(-c3ccccc3)cc21 [Compound 28] | -0.7597 | -1.727 | – | 0.2076
COc1cc(F)ccc1-c1ccc2c(c1)COCC(=O)N2Cc1cc(F)cc(F)c1 [Compound 182] | -0.8244 | -0.8244 | – | –
CN1C(=O)COCc2cc(Br)ccc21 [Compound 6] | -1.038 | -1.038 | – | –
O=C1COCc2cc(-c3cccnc3)ccc2N1CCc1ccccc1 [Compound 73] | 3.006 | 3.006 | – | –
COCCN1C(=O)COCc2ccc(Br)cc21 [Compound 31] | -1.486 | -1.486 | – | –
COCCN1C(=O)COCc2ccc(-c3ccccc3C)cc21 [Compound 36] | -1.658 | -1.658 | – | –
COc1cc(F)ccc1-c1ccc2c(c1)N(Cc1cc(F)cc(F)c1)C(=O)COC2 [Compound 181] | – | -0.2325 | -0.2325 | –
COc1cc(F)ccc1-c1ccc2c(c1)COCC(=O)N2CCc1ccccc1 [Compound 144] | -1.769 | -1.769 | – | –
COCc1cccc(-c2ccc3c(c2)COCC(=O)N3Cc2cccc(OC)c2)c1 [Compound 170] | -0.3892 | -0.3892 | – | –
Cc1ccc(-c2ccc3c(c2)COCC(=O)N3Cc2ccc(C(=O)N(C)C)cc2)cc1C [Compound 186] | – | 10.5493 | 10.5493 | –
